Consider 1 compound from ChEMBL document CHEMBL5370603, “N-(2-Aminophenyl)-benzamide Inhibitors of Class I HDAC Enzymes with Antiproliferative and Antifibrotic Activity” (J Med Chem, 2023).

Broadly, the IC50 is the concentration needed to halve the response being measured. A word on the inhibition: it is the share of the control response that was lost under treatment.

For one assay, the target named is T1, Histone deacetylase 1 (Homo sapiens, UniProt Q13547). The experiment in a line: Inhibition of human recombinant HDAC1 using Ac-Leu-Gly-Lys(Ac)-AMC as substrate preincubated with enzyme for 30 mins followed by substrate addition and measured after 90 mins by fluorescence based analysis.
T1 sequence (Q13547 whole entry): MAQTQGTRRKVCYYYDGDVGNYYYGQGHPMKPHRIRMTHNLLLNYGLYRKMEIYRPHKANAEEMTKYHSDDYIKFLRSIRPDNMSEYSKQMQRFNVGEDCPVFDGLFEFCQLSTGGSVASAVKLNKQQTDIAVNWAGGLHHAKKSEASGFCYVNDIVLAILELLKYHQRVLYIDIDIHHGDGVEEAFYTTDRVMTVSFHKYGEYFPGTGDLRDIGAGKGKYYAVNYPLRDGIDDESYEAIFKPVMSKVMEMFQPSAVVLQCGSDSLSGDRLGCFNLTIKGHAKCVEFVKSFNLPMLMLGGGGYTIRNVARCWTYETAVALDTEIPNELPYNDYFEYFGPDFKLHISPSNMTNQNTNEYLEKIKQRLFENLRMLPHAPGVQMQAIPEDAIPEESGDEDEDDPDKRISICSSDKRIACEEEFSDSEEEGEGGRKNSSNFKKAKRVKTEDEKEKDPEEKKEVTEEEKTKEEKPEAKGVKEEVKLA
Conditions: not given
With `Nc1ccccc1NC(=O)c1ccc(COc2ccc(NC(=O)[C@@H]3CCC(=O)N3Cc3ccccc3)cc2)cc1`, the IC50 is 0.43 µM.

The target in a further assay is T2, Protein deacetylase HDAC6 (Homo sapiens, UniProt Q9UBN7).
T2 sequence (Q9UBN7 whole entry): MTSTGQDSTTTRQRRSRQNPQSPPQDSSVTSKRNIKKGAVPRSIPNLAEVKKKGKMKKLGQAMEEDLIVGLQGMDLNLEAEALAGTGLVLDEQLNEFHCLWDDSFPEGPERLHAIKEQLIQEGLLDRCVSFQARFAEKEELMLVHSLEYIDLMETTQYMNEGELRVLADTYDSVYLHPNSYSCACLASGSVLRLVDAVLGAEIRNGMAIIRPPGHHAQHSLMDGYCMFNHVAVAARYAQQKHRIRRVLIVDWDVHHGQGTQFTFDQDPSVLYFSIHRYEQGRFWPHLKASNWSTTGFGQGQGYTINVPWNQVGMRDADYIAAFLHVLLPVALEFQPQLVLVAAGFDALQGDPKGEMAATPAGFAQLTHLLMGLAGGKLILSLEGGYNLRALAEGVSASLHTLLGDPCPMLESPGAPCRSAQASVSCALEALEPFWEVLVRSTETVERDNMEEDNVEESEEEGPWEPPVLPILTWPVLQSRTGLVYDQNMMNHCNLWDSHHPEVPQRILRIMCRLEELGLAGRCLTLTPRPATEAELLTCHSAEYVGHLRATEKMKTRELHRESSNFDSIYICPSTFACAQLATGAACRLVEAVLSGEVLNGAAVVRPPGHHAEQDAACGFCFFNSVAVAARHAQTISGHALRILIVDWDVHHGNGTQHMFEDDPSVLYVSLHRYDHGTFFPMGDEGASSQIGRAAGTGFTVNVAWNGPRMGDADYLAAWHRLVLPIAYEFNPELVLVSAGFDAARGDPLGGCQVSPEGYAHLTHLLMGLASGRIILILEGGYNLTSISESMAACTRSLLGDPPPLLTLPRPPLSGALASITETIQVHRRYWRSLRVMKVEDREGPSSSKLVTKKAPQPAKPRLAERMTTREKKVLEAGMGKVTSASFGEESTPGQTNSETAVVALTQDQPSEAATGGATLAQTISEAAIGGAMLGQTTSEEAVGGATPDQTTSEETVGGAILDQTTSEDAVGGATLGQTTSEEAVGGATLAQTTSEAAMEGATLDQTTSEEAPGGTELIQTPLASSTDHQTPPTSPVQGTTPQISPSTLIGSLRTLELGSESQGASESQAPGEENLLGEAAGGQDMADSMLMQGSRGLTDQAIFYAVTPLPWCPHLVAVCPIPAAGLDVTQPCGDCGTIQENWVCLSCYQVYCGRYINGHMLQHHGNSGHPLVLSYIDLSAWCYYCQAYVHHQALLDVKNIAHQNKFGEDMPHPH
The experiment in a line: Inhibition of C-terminal FLAG-tagged human recombinant full length HDAC6 expressed in baculovirus expression system using Boc-Lys(Ac)-AMC as substrate preincubated with enzyme for 15 mins followed by substrate addition and measured after 60 mins by fluorescence based analysis.
Conditions: not given
For the compound `Nc1ccccc1NC(=O)c1ccc(COc2ccc(NC(=O)[C@@H]3CCC(=O)N3Cc3ccccc3)cc2)cc1`, the IC50 was over 10 µM.

The next assay concerns A549. The experiment in a line: Antiproliferative activity against human A549 cells assessed as inhibition of cell growth incubated for 72 hrs by MTT assay. The assay is classed as functional, cell-based. As to conditions: A549, 72 h. On the technique in general: Tetrazolium dyes change colour on reduction, which living cells bring about.
Regarding `Nc1ccccc1NC(=O)c1ccc(COc2ccc(NC(=O)[C@@H]3CCC(=O)N3Cc3ccccc3)cc2)cc1`, the IC50 was over 25 µM.

In another assay the test system is SF-268. The experiment in a line: Antiproliferative activity against human SF-268 cells assessed as inhibition of cell growth incubated for 72 hrs by MTT assay. The assay is classed as functional, cell-based. As to conditions: SF-268, 72 h.
In the case of `Nc1ccccc1NC(=O)c1ccc(COc2ccc(NC(=O)[C@@H]3CCC(=O)N3Cc3ccccc3)cc2)cc1`, the IC50 is over 25 µM.

The next assay addresses T1, Histone deacetylase 1. The experiment in a line: Inhibition of human recombinant HDAC1 using Ac-Leu-Gly-Lys(Ac)-AMC as substrate preincubated with enzyme for 30 mins followed by substrate addition and measured after 90 mins by fluorescence based analysis relative to control. As to conditions: time 120.0 min.
Consider `Nc1ccccc1NC(=O)c1ccc(COc2ccc(NC(=O)[C@@H]3CCC(=O)N3Cc3ccccc3)cc2)cc1`, for which the inhibition is 75%.
